Test results as given in patent US9206173B2, “Heterocyclic compounds for the treatment of stress-related conditions” (OTSUKA PHARMACEUTICAL CO., LTD., priority 2009, dated 2015).
Counter-ions that a name gives are not always drawn. Like-named read-outs stand apart in the source and are kept apart here.

Legend:
human GPR10 [1] = target: T1, human GPR10 (Homo sapiens (Human), UniProt P49683); experiment: Antagonistic activity on PrRP-induced intracellular calcium mobilization in human GPR10-expressing HEK293 cells; assay type: cell-based; details: PrRP 1 nM-induced intracellular calcium mobilization, Fluo-8
T1 sequence (P49683 whole entry): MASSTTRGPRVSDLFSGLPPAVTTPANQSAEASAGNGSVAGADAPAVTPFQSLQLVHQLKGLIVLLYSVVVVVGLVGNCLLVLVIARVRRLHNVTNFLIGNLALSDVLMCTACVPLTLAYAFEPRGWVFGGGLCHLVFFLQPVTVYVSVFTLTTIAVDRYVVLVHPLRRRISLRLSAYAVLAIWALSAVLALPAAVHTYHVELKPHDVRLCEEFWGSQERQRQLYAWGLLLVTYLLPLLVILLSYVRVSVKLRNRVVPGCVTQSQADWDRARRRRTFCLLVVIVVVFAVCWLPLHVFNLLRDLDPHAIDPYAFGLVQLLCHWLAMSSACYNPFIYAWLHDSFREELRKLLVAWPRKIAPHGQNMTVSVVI
Procedure: Pharmacological Test 2 Antagonistic Activity on GPR10 Using Human GPR10-Expressing HEK293 Cells.
Antagonistic activity of test compounds on PrRP-induced intracellular calcium mobilization was evaluated using GPR10-expressing HEK293 cells.
HEK293 cells expressing human GPR10 were maintained in Dulbecco's Modified Eagles' medium supplemented with 10% fetal bovine serum, 1% penicillin-streptomycin and 20 mM HEPES at 37° C. in a 5% CO2 incubator. GPR10-expressing HEK293 cells were placed in poly-D-lysine coated 96-well culture plates and cultured for 18-24 hr before the test at a density of 3×10^4 cells/well. […] The cells were incubated with test compounds for 15 min at room temperature, and then PrRP (the final concentration, 1 nM) was added into the medium. The changes in intracellular calcium-dependent fluorescence were monitored using a fluorescence imaging plate reader (FDSS3000, Hamamatsu Photonics K.K.). Fluo-8 fluorescence was measured with excitation at 490 nm and emission at 520 nm. The calcium-dependent fluorescence intensity was calculated by subtracting basal intensity (average intensity for 30 sec before agonist stimulation) from peak intensity for 60 sec after PrRP-stimulation, and then IC50 values were determined by nonlinear curve-fitting program, GraphPad Prism 5.

human GPR10 [2] = target: T1, human GPR10; experiment: Inhibitory activity on binding of [3H]-PrRP to GPR10 (HEK 293 cell membrane fraction)
Procedure: Inhibitory Activity on Binding of [^3H]-PrRP to GPR10
Human GPR10 receptor expressing human embryonic kidney cells, HEK 293 cells, were cultured in Dulbecco's Modified Eagle's medium supplemented with 10% fetal bovine serum and 1% penicilline-streptmycin at 37° C., in 5% carbon dioxide gas conditions. The medium was removed and the cells were recovered in a phosphate buffer to prepare a cell suspension. The cell suspension was homogenated on ice by an ultrasonic cell homogenizer (Microson™ type XL200) and centrifuged at 40,000 g for 10 minutes at 4° C. After the supernatant was discarded, Buffer A (20 mM HEPES, 10 mM EDTA, 1 μl/ml protease inhibiting cocktail, pH 7.4) was added to the pellet. The pellet was suspended by the ultrasonic cell homogenizer, then the suspension was centrifuged at 40,000 g, for 10 minutes at 4° C. After this operation was repeated once again, the supernatant was discarded, Buffer B (20 mM HEPES, 0.1 mM EDTA, pH 7.4) was added to the pellet, and the pellet was suspended by the ultrasonic homogenizer. This was stored at a freezer of −80° C. as a cell membrane fraction until use in a binding test.
To each well of a 96-well plate, 150 μl of assay buffer (20 mM HEPES, 10 mM EDTA, 1 μl/ml protease inhibiting agent cocktail, pH 7.4), 20 μl of cell membrane fraction, 10 μl of test compound and [^3H]-PrRP (final concentration 1 nM) were added and incubated at room temperature for 90 minutes. After completion of the reaction, using a cell harvester, the cell-membrane fraction sample product was filtered under aspiration by a glass fiber filter plate (Unifilter; GF/B) previously treated with 0.5% polyethylene imine. The filter was washed with a 50 mM Tris hydrochloric acid buffer (pH 7.4) three times. After the filter was dried in a dryer (50° C.) for about 3 hours, 40 μl of liquid scintillation cocktail (MicroScint-O) was added to each well and radio activity was measured by a scintillation counter (Packard Topcount). The radio activity in the presence of an excessive amount of non-labeled PrRP (final concentration: 100 nM) was regarded as non-specific binding.
The binding inhibition rate was calculated based on calculating formula: 100−(radio activity when a compound is added−radio activity of non-specific binding)÷(radio activity when a solvent is added−radio activity of non-specific binding)×100.
An IC50 value was calculated based on the concentration dependent reaction using a non-linear analysis program and a Ki value was calculated using Cheng-Prussoff formula.

[3] = [3H]-PrRP 1 nM, human GPR10-expressing HEK 293 cell membrane fraction, Ki from IC50 by Cheng-Prussoff formula

SMILES	IC50 (human GPR10 [1])	Ki (human GPR10 [2])	Ki (human GPR10 [2]; [3])
COn1c(N[C@@H](C)c2ccc(C(F)(F)F)cc2)nc2c(c1=O)CN(C(=O)/C=C/c1ccc(Cl)cc1)CC2 [Example 2392, 6-[(E)-3-(4-chlorophenyl)acryloyl]-3-methoxy-2-[(S)-1-(4-trifluoromethylphenyl)ethylamino]-5,6,7,8-tetrahydro-3H-pyrido[4,3-d]pyrimidin-4-one]	5790 nM	12 nM	–
CCOn1c(N[C@H](C)c2ccc(C(F)(F)F)cc2)nc2c(c1=O)CN(C(=O)c1ccc(-c3cnco3)cc1)CC2 [Example 104]	158 nM	–	20 nM
C#CCn1c(N[C@@H](C)c2ccc(C(F)(F)F)cc2)nc2c(c1=O)CN(C(=O)c1ccc(Cl)cc1)CC2 [Example 2, 6-(4-chlorobenzoyl)-3-propargyl-2-(S)-{1-[4-(trifluoromethyl)phenyl]ethylamino}-5,6,7,8-tetrahydropyrido[4,3-d]pyrimidin-4-(3H)-one hydrochloride]	378 nM	–	29 nM
C[C@@H](Nc1nc2c(c(=O)n1N1CCCC1)CN(C(=O)c1ccc(C#N)cc1F)CC2)c1ccc(C(F)(F)F)cc1 [Example 166]	298 nM	–	6 nM
CC#CCn1c(N[C@@H](C)c2ccc(C(F)(F)F)cc2)nc2c(c1=O)CN(C(=O)c1ccc(-c3cnco3)cc1)CC2 [Example 2410, 3-(2-butynyl)-6-(4-oxazol-5-ylbenzoyl)-2-[(S)-1-(4-trifluoromethylphenyl)ethylamino]-5,6,7,8-tetrahydro-3H-pyrido[4,3-d]pyrimidin-4-one hydrochloride]	665 nM	–	10 nM
CC#CCn1c(N[C@@H](C)c2ccc(C(F)(F)F)cc2)nc2c(c1=O)CN(C(=O)c1ccc(-n3ccnc3)cc1)CC2 [Example 2402, 3-(2-butynyl)-6-(4-imidazol-1-ylbenzoyl)-2-[(S)-1-(4-trifluoromethylphenyl)ethylamino]-5,6,7,8-tetrahydro-3H-pyrido[4,3-d]pyrimidin-4-one dihydrochloride]	99 nM	–	6 nM
C[C@H](Nc1nc2c(c(=O)n1N(C)C)CN(C(=O)COc1ccc(Cl)cc1)CC2)c1ccc(Cl)cc1 [Example 2431, 6-[2-(4-chlorophenoxy)acetyl]-2-[(S)-1-(4-chlorophenyl)ethylamino]-3-dimethylamino-5,6,7,8-tetrahydro-3H-pyrido[4,3-d]pyrimidin-4-one]	3600 nM	–	207 nM
COn1c(NC(c2ccc(Cl)cc2)C(C)C)nc2c(c1=O)CN(C(=O)c1ccc(Cl)cc1)CC2 (stereo not drawn) [Example 2441, 6-(4-chlorobenzoyl)-2-[1-(4-chlorophenyl)-2-methylpropylamino]-3-methoxy-5,6,7,8-tetrahydro-3H-pyrido[4,3-d]pyrimidin-4-one]	4490 nM	–	37 nM
C[C@H](Nc1nc2c(c(=O)n1N1CCOCC1)CN(C(=O)c1ccc(C#N)cc1F)CC2)c1ccc(C(F)(F)F)cc1 [Example 2463, 3-fluoro-4-{3-morpholin-4-yl-4-oxo-2-[(S)-1-(4-trifluoromethylphenyl)ethylamino]-3,5,7,8-tetrahydro-4H-pyrido[4,3-d]pyrimidine-6-carbonyl}benzonitrile hydrochloride]	187 nM	–	3 nM
COn1c(N[C@@H](C)c2ccc(C(F)(F)F)cc2)nc2c(c1=O)CN(C(=O)c1ccc(C)c(C)c1)CC2 [Example 2452, 6-(3,4-dimethylbenzoyl)-3-methoxy-2-[(S)-1-(4-trifluoromethylphenyl)ethylamino]-5,6,7,8-tetrahydro-3H-pyrido[4,3-d]pyrimidin-4-one]	1030 nM	–	4 nM
CC#CCn1c(N[C@@H](C)c2ccc(C(F)(F)F)cc2)nc2c(c1=O)CN(C(=O)c1ccc(Cl)cc1)CC2 [Example 2409, 3-(2-butynyl)-6-(4-chlorobenzoyl)-2-[(S)-1-(4-trifluoromethylphenyl)ethylamino]-5,6,7,8-tetrahydro-3H-pyrido[4,3-d]pyrimidin-4-one hydrochloride]	2440 nM	–	16 nM
C#CCn1c(N[C@@H](C)c2ccc(C(F)(F)F)cc2)nc2c(c1=O)CN(C(=O)c1ccc(C#N)cc1F)CC2 [Example 1, 6-(4-cyano-2-fluorobenzoyl)-3-propargyl-2-(S)-{1-[4-(trifluoromethyl)phenyl]ethylamino}-5,6,7,8-tetrahydropyrido[4,3-d]pyrimidin-4-(3H)-one hydrochloride]	42 nM	–	5 nM
COn1c(N[C@@H](C)c2ccc(C(F)(F)F)cc2)nc2c(c1=O)CN(C(=O)c1ccc(OC(F)(F)F)cc1)CC2 [Example 63]	686 nM	–	16 nM
C[C@@H](Nc1nc2c(c(=O)n1N1CCCC1)CN(C(=O)c1ccc(C#N)cc1)CC2)c1ccc(C(F)(F)F)cc1 [Example 163]	648 nM	–	10 nM
COn1c(N[C@@H](C)c2ccc(Cl)cc2)nc2c(c1=O)CN(C(=O)COc1ccc(Cl)cc1)CC2 [Example 2430, 6-[2-(4-chlorophenoxy)acetyl]-2-[(S)-1-(4-chlorophenyl)ethylamino]-3-methoxy-5,6,7,8-tetrahydro-3H-pyrido[4,3-d]pyrimidin-4-one]	1180 nM	–	15 nM
COn1c(N[C@@H](C)c2ccc(C(F)(F)F)cc2)nc2c(c1=O)CN(C(=O)c1ccc(C#N)cc1F)CC2 [Example 11, 6-(4-cyano-2-fluorobenzoyl)-3-methoxy-2-(S)-{1-[4-(trifluoromethyl)phenyl]ethylamino}-5,6,7,8-tetrahydropyrido[4,3-d]pyrimidin-4-(3H)-one hydrochloride]	34 nM	–	15 nM
CC#CCn1c(N[C@@H](C)c2ccc(C(F)(F)F)cc2)nc2c(c1=O)CN(C(=O)c1cnc3ccccc3c1)CC2 [Example 2446, 3-(2-butynyl)-6-(quinoline-3-carbonyl)-2-[(S)-1-(4-trifluoromethylphenyl)ethylamino]-5,6,7,8-tetrahydro-3H-pyrido[4,3-d]pyrimidin-4-one]	2790 nM	–	28 nM
CC#CCn1c(N[C@@H](C)c2ccc(C(F)(F)F)cc2)nc2c(c1=O)CN(C(=O)c1ccc3ccccc3n1)CC2 [Example 2449, 3-(2-butynyl)-6-(quinoline-2-carbonyl)-2-[(S)-1-(4-trifluoromethylphenyl)ethylamino]-5,6,7,8-tetrahydro-3H-pyrido[4,3-d]pyrimidin-4-one]	3350 nM	–	24 nM
C#CCCn1c(N[C@@H](C)c2ccc(C(F)(F)F)cc2)nc2c(c1=O)CN(C(=O)c1ccc(C#N)cc1)CC2 [Example 2433, 4-{3-(3-butynyl)-4-oxo-2-[(S)-1-(4-trifluoromethylphenyl)ethylamino]-3,5,7,8-tetrahydro-4H-pyrido[4,3-d]pyrimidine-6-carbonyl}benzonitrile]	62 nM	–	5 nM
CCOn1c(N[C@H](C)c2ccc(C(F)(F)F)cc2)nc2c(c1=O)CN(C(=O)c1ccc(C#N)cc1)CC2 [Example 92]	156 nM	–	11 nM
CC#CCn1c(N[C@@H](C)c2ccc(C(F)(F)F)cc2)nc2c(c1=O)CN(C(=O)c1ccc(C#N)cc1F)CC2 [Example 2406, 4-{3-(2-butynyl)-4-oxo-2-[(S)-1-(4-trifluoromethylphenyl)ethylamino]-3,5,7,8-tetrahydro-4H-pyrido[4,3-d]pyrimidine-6-carbonyl}-3-fluorobenzonitrile hydrochloride]	78 nM	–	2 nM
